Results published in patent publication US7615560B2, “Thienopyrimidines as cooling agents” (Conopco, Inc., priority 2004, dated 2009).

Biological target: T1, human TRPM8 channel (Homo sapiens, UniProt Q7Z2W7)
T1 construct: The open reading frame of human cDNA TRPM8 from position 41-3355bp was amplified; expressed in transfected cells
Experiment: Intracellular calcium (fluo-4 fluorescence) assay in HEK 293 cells stably expressing human TRPM8
Type: cell-based
Conditions: fluo-4 calcium fluorescence, concentration producing one-half of maximal response (DFmax)
Text: Humans can detect changes in temperature from noxious cold (<8 C) to noxious heat (>52 C) due to activation of sensory nerve fibers. “The principal temperature sensors in the sensory nerve fibers are members of a family of transient receptor potential (TRP) cation channels” (Voets et al., 2004). In humans the sensation of cooling is elicited by activation of channel TRPM8, which is activated at temperatures below 28 C (Voets et al., 2004). Furthermore human TRPM8 is activated by compounds such as menthol (Brauchi et al., Proc. Natl. Acad. Sci. USA, 2004, Oct. 26; 101 (43):15494-9; Voets et al., Nature, 2004, 430 (7001): 748-54). […]
The open reading frame of human cDNA TRPM8 from position 41-3355bp was amplified from a human prostate cDNA library (Stratagene) using primers […] and […] as previously described previously (Tsavalier et al., 2001). […]
Cells stably expressing the human TRPM8 were seeded in a 96 well plate (coated with polylysine) at a density of 10^5 cells /well in 200 μl of media. […] The dye was then removed and the cells were incubated in a Tyrodes buffer (containing 1 mM probenicide, pH 7.4) pre-equilibrated at a certain temperature (i.e 37° C.) and the intracellular calcium levels were monitored at the same temperature, using the Novostar plate reader. The cells in each well were illuminated at 480 nm, and the fluorescent light emitted at 510 nm was measured. […]

T1 sequence (Q7Z2W7 whole entry): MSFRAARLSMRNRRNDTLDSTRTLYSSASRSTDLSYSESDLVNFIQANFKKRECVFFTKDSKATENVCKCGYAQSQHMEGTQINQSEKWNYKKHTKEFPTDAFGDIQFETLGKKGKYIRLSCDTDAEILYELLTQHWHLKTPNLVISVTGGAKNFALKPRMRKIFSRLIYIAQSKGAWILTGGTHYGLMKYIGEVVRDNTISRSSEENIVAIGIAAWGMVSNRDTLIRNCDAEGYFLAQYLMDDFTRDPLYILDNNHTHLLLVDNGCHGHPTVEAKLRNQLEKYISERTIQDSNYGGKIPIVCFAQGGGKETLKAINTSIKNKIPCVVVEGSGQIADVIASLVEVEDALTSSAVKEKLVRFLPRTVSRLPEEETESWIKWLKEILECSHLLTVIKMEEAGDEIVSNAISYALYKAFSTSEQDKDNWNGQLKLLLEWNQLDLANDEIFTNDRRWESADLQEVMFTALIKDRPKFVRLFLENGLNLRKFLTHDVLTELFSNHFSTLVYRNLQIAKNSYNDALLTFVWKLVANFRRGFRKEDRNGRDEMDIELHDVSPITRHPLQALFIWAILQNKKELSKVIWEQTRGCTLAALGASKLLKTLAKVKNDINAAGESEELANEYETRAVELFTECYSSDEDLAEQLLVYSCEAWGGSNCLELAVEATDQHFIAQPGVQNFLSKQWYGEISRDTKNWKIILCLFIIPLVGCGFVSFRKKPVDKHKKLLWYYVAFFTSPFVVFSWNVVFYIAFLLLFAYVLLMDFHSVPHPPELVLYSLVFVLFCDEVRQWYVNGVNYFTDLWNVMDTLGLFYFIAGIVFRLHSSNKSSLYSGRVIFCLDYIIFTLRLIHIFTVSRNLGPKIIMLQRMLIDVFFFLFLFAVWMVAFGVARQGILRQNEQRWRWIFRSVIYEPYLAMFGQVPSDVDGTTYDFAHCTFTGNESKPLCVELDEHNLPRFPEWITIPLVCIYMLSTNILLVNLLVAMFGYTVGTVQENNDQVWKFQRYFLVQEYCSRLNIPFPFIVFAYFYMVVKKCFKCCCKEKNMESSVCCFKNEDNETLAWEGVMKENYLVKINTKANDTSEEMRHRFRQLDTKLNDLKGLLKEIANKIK

EC50: 6.5 µM
SMILES: CCCn1cnc2sc3c(c2c1=N)CCCC3 [Example 1, 3-propyl-5,6,7,8-tetrahydro-3H-benzo[4,5]-thieno[2,3-d]pyrimidin-4-ylidene amine]
